System: brain of rats subjected to severe traumatic brain injury (sTBI)
Experiment: Ingenuity pathway analysis of differentially regulated genes after sTBI (canonical pathways, diseases and molecular functions; Example 4)
Parameters: species or system rat
Protocol: Pathway analysis of the differentially regulated genes was carried out using the Ingenuity pathway analysis package. The analysis was performed with special reference to pathways and molecular processes and diseases associated with neurodegenerative disease, including dementia, Alzheimer's disease, ALS, TBI and stroke, and with scarring and fibrosis, including glaucoma and normal pressure hydrocephalus (NPH) after subarachnoid haemorrhage.

[1] = TBI + 1 mg/kg LMW-DS, 2 days after TBI
[2] = TBI + 1 mg/kg LMW-DS, 7 days after TBI, relative to control
[3] = TBI + 1 mg/kg LMW-DS, 7 days after TBI
[4] = TBI + 5 mg/kg LMW-DS, 2 days after TBI

sodium salt of dextran sulfate [LMW-DS]
Activated: Effect on diseases or functions annotation: Apoptosis of muscle cells [1] | Effect on diseases or functions annotation: Behavior [1] | Effect on diseases or functions annotation: Binding of tumor cell lines [1] | Effect on diseases or functions annotation: Cell death of blood cells [1] | Effect on diseases or functions annotation: Cell death of immune cells [1] | Effect on diseases or functions annotation: Cell movement [1] | Effect on diseases or functions annotation: Cellular homeostasis [1] | Effect on diseases or functions annotation: Differentiation of connective tissue cells [1] | Effect on diseases or functions annotation: Differentiation of hematopoietic progenitor cells [1] | Effect on diseases or functions annotation: Extracranial solid tumor [1] | Effect on diseases or functions annotation: Genital tumor [1] | Effect on diseases or functions annotation: Inflammatory response [1] | Effect on diseases or functions annotation: Interaction of mononuclear leukocytes [1] | Effect on diseases or functions annotation: Leukocyte migration [1] | Effect on diseases or functions annotation: Leukopoiesis [1] | Effect on diseases or functions annotation: Lymphopoiesis [1] | Effect on diseases or functions annotation: Migration of cells [1] | Effect on diseases or functions annotation: Quantity of connective tissue cells [1] | Effect on diseases or functions annotation: Synthesis of hormone [1] | Effect on diseases or functions annotation: Thrombus [1] | Effect on diseases or functions annotation: Transport of molecule [1] | Diseases or functions annotation: Quantity of carbohydrate [3] | Diseases or functions annotation: Quantity of metal [3] | Diseases or functions annotation: Synthesis of lipid [3] | Diseases or functions annotation: Vaso-occlusion [3] | Diseases or functions annotation: Weight gain [3] | Ingenuity canonical pathway: Endothelin-1 Signaling [3] | Ingenuity canonical pathway: G Beta Gamma Signaling [3] | Ingenuity canonical pathway: Role of NFAT in Regulation of the Immune Response [3] | Ingenuity canonical pathway: Synaptic Long Term Depression [3] | Effect on diseases or functions annotation: Apoptosis [4] | Effect on diseases or functions annotation: Cell death [4] | Effect on diseases or functions annotation: Edema [4]
1.342: z score, Ingenuity canonical pathway: Endothelin-1 Signaling [2] | z score, Ingenuity canonical pathway: Synaptic Long Term Depression [2]
−2: z score, Ingenuity canonical pathway: ERK5 Signaling [2]
1: z score, Ingenuity canonical pathway: G Beta Gamma Signaling [2]
Inhibited: Effect on diseases or functions annotation: Carcinoma [1] | Effect on diseases or functions annotation: Cell death [1] | Effect on diseases or functions annotation: Cell movement of muscle cells [1] | Effect on diseases or functions annotation: Cell movement of vascular smooth muscle cells [1] | Effect on diseases or functions annotation: Cell proliferation of T lymphocytes [1] | Effect on diseases or functions annotation: Development of connective tissue cells [1] | Effect on diseases or functions annotation: Differentiation of bone cells [1] | Effect on diseases or functions annotation: Differentiation of osteoclasts [1] | Effect on diseases or functions annotation: Digestive organ tumor [1] | Effect on diseases or functions annotation: Experimentally-induced arthritis [1] | Effect on diseases or functions annotation: Incidence of tumor [1] | Effect on diseases or functions annotation: Inflammation of absolute anatomical region [1] | Effect on diseases or functions annotation: Inflammation of body cavity [1] | Effect on diseases or functions annotation: Inflammation of joint [1] | Effect on diseases or functions annotation: Inflammation of organ [1] | Effect on diseases or functions annotation: Malignant solid tumor [1] | Effect on diseases or functions annotation: Necrosis [1] | Effect on diseases or functions annotation: Non-hematologic malignant neoplasm [1] | Effect on diseases or functions annotation: Pelvic tumor [1] | Effect on diseases or functions annotation: Proliferation of blood cells [1] | Effect on diseases or functions annotation: Proliferation of lymphatic system cells [1] | Effect on diseases or functions annotation: Proliferation of lymphocytes [1] | Effect on diseases or functions annotation: Quantity of blood cells [1] | Effect on diseases or functions annotation: Quantity of bone [1] | Effect on diseases or functions annotation: Quantity of cells [1] | Effect on diseases or functions annotation: Quantity of leukocytes [1] | Effect on diseases or functions annotation: Quantity of lymphatic system cells [1] | Effect on diseases or functions annotation: Quantity of phagocytes [1] | Effect on diseases or functions annotation: Rheumatic Disease [1] | Effect on diseases or functions annotation: Solid tumor [1] | Effect on diseases or functions annotation: Survival of organism [1] | Diseases or functions annotation: Abdominal cancer [3] | Diseases or functions annotation: Abdominal carcinoma [3] | Diseases or functions annotation: Cell movement [3] | Diseases or functions annotation: Cell viability [3] | Diseases or functions annotation: Concentration of hormone [3] | Diseases or functions annotation: Development of connective tissue cells [3] | Diseases or functions annotation: Development of malignant tumor [3] | Diseases or functions annotation: Developmental process of synapse [3] | Diseases or functions annotation: Differentiation of bone cells [3] | Diseases or functions annotation: Differentiation of connective tissue cells [3] | Diseases or functions annotation: Digestive organ tumor [3] | Diseases or functions annotation: Digestive system cancer [3] | Diseases or functions annotation: Epithelial neoplasm [3] | Diseases or functions annotation: Formation of plasma membrane [3] | Diseases or functions annotation: Frequency of tumor [3] | Diseases or functions annotation: Gastrointestinal tumor [3] | Diseases or functions annotation: Hematologic cancer [3] | Diseases or functions annotation: Hematopoietic neoplasm [3] | Diseases or functions annotation: Incidence of tumor [3] | Diseases or functions annotation: Large intestine neoplasm [3] | Diseases or functions annotation: Liver tumor [3] | Diseases or functions annotation: Malignant genitourinary solid tumor [3] | Diseases or functions annotation: Metabolism of hormone [3] | Diseases or functions annotation: Pelvic tumor [3] | Diseases or functions annotation: Quantity of Ca^2+ [3] | Diseases or functions annotation: Tumorigenesis of epithelial neoplasm [3] | Diseases or functions annotation: Tumorigenesis of tissue [3] | Ingenuity canonical pathway: Adrenomedullin signaling pathway [3] | Ingenuity canonical pathway: ERK5 Signaling [3] | Ingenuity canonical pathway: NF-κB Signaling [3] | Ingenuity canonical pathway: Opioid Signaling Pathway [3] | Effect on diseases or functions annotation: Abdominal cancer [4] | Effect on diseases or functions annotation: Abdominal carcinoma [4] | Effect on diseases or functions annotation: Abdominal neoplasm [4] | Effect on diseases or functions annotation: Behavior [4] | Effect on diseases or functions annotation: Carcinoma [4] | Effect on diseases or functions annotation: Cell death of antigen presenting cells [4] | Effect on diseases or functions annotation: Cell death of immune cells [4] | Effect on diseases or functions annotation: Cell death of tumor cell lines [4] | Effect on diseases or functions annotation: Cell movement [4] | Effect on diseases or functions annotation: Cell movement of tumor cell lines [4] | Effect on diseases or functions annotation: Cell proliferation of leukocyte cell lines [4] | Effect on diseases or functions annotation: Cellular homeostasis [4] | Effect on diseases or functions annotation: Chemotaxis [4] | Effect on diseases or functions annotation: Concentration of prostaglandin [4] | Effect on diseases or functions annotation: Development of vasculature [4] | Effect on diseases or functions annotation: Digestive organ tumor [4] | Effect on diseases or functions annotation: Digestive system cancer [4] | Effect on diseases or functions annotation: Epithelial neoplasm [4] | Effect on diseases or functions annotation: Extracranial solid tumor [4] | Effect on diseases or functions annotation: Feeding [4] | Effect on diseases or functions annotation: Growth of tumor [4] | Effect on diseases or functions annotation: Hematologic cancer [4] | Effect on diseases or functions annotation: Incidence of tumor [4] | Effect on diseases or functions annotation: Leukocyte migration [4] | Effect on diseases or functions annotation: Leukopoiesis [4] | Effect on diseases or functions annotation: Locomotion [4] | Effect on diseases or functions annotation: Lymphocyte homeostasis [4] | Effect on diseases or functions annotation: Lymphocytic cancer [4] | Effect on diseases or functions annotation: Lymphocytic neoplasm [4] | Effect on diseases or functions annotation: Lymphopoiesis [4] | Effect on diseases or functions annotation: Lymphoproliferative disorder [4] | Effect on diseases or functions annotation: Malignant solid tumor [4] | Effect on diseases or functions annotation: Metabolism of hormone [4] | Effect on diseases or functions annotation: Migration of cells [4] | Effect on diseases or functions annotation: Necrosis [4] | Effect on diseases or functions annotation: Neoplasia of leukocytes [4] | Effect on diseases or functions annotation: Non-melanoma solid tumor [4] | Effect on diseases or functions annotation: Proliferation of hematopoietic progenitor cells [4] | Effect on diseases or functions annotation: Quantity of cells [4] | Effect on diseases or functions annotation: Quantity of epithelial tissue [4] | Effect on diseases or functions annotation: Quantity of neuroglia [4]
−1: z score, Ingenuity canonical pathway: Adrenomedullin signaling pathway [2]
−0.447: z score, Ingenuity canonical pathway: NF-κB Signaling [2] | z score, Ingenuity canonical pathway: Opioid Signaling Pathway [2]
0.816: z score, Ingenuity canonical pathway: Role of NFAT in Regulation of the Immune Response [2]

From patent US20220128542A1, “TREATMENT EFFICIENCY EVALUATION” (TX MEDIC AB, priority 2019, published 2022)
